# Measured values as given in patent US9908890B2, “Selective inhibitors of constitutive androstane receptor” (ST. JUDE CHILDREN'S RESEARCH HOSPITAL, priority 2014, dated 2018).
# pIC50: −log10 of the molar value. Where two headings read alike, the source gives them in different places.
# Key:
# hCAR1 = target: T1, hCAR1 (Homo sapiens, UniProt Q14994); assay: Cell-based inverse agonist assay (CYP2B6-luciferase reporter in HepG2 cells transfected with hCAR1)
# T1 construct: expressed in transfected cells; host or cells: HepG2 (transient transfection)
# T1 sequence (Q14994 1-348 isoform Q14994-2): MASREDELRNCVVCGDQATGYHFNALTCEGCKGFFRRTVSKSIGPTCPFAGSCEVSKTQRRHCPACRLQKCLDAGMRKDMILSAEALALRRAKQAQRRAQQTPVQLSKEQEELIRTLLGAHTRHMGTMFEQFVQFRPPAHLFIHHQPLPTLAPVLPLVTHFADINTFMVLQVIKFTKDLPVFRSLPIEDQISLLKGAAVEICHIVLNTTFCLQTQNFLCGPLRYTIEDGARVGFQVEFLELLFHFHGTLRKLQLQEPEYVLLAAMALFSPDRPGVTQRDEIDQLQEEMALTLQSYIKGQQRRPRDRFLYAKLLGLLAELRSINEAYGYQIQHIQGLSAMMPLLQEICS
# Procedure: HepG2 cells grown in flasks were transfected with Flag-hCAR1 and CYP2B6-luciferase reporter at a 1:3 ratio with Fugene HD (Promega) and incubated for 24 h. Cells were trypsinized and plated in 384-well plates (CulturPlate-384, PerkinElmer) at 5000 cells/well for the primary or secondary screening assays. Cells were treated with chemicals transferred by using a pintool 24 h prior to measuring reporter luciferase activity with SteadyLite firefly luciferase reagent and an EnVision plate reader (PerkinElmer). […] PXR activity was measured in HepG2 cells stably transfected with hPXR and CYP3A4-luciferase reporter (previously described as PXR Clonel cells, see Li, G., et al. (2012) Tox. Appl. Pharm. 258, 268-274; and Lin, W., et al. (2008) J. Biol. Chem. 283, 30650-30657). […] The luminescence signal was detected by using an Envision plate reader (PerkinElmer) and used to calculate the percentage of PXR activation. […] A flowchart of our screening strategy is illustrated in FIG. 1A. HepG2 cells were transiently transfected with pcDNA-hCAR1 and CYP2B6-luciferase plasmids and treated with varying concentrations of the test compounds in 384-well plates for 24 h, and CAR-mediated luciferase activity was measured. Twenty-five hits, defined as those displaying dose-responsive inhibitory effect on the constitutively active hCAR1, were selected and tested in various secondary screening assays. CINPA1 (FIG. 1B) was selected based on its potent inhibitory effect on hCAR1 and lack of detectable agonistic activity against PXR.
# GST-hCAR-LBD = target: T2, GST-hCAR-LBD (Homo sapiens, UniProt Q14994); assay: CoAct binding inverse agonist assay (LanthaScreen TR-FRET, fluorescent PGC-1α coactivator recruitment/repression); format: biochemical; conditions: for inhibition at 70 µM: read-out: % Inhibition (70 μM)
# T2 construct: purchased Life Technologies (Carlsbad, Calif.) or Invitrogen (Carlsbad, Calif.)
# T2 sequence (Q14994 109-352 limits assumed): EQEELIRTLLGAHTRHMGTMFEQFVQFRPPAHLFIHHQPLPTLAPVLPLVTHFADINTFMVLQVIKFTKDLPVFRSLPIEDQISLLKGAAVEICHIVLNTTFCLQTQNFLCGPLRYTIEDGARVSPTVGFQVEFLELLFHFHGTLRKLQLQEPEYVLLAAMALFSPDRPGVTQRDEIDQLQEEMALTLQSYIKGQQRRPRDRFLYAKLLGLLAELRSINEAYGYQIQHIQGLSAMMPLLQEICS
# [1] = tested on: CAR-regulated genes in LS174T cells; assay: Quantitative real-time PCR in LS174T cells; format: cell-based; conditions: 1 μM CINPA1 or 5 μM PK11195, 24 h
# Description: (§1) RNA was extracted, cDNA synthesized, and gene expression analyzed by performing real-time PCR using Taqman probes for each gene. […] LS174T cells were maintained in 10% charcoal-dextran-treated, FBS media for 4 days before the experiment. […] Briefly, human primary hepatocytes (HPH) were maintained in William's E media with supplements for 4 days before treatment. […] RNA extracted was used for cDNA synthesis and measured by performing quantitative real-time PCR assays with Taqman probes.
# Briefly, LS174T were maintained in 10% charcoal-dextran treated-FBS media for 4 days prior to the experiment. […] For the data shown in both FIG. 12A and FIG. 12B, RNA extracted was used for cDNA synthesis and measured by quantitative real-time PCR with Taqman probes. MDR1 mRNA was normalized to the internal control 18S and DMSO treated samples were set to 1. *, p<0.05 when compared to DMSO samples.
# (§2) Cell lines or human hepatocytes were treated with chemicals for 24-48 hours before RNA was extracted and purified by using the Maxwell 16LEV simplyRNA tissue kit (Promega). Then, cDNA was prepared from 2 μg of RNA, and diluted cDNA was used to perform quantitative RT-PCR assays by using TaqMan probes (ABI; 7500 Thermocycler) with 18S as the internal standard.
# [2] = tested on: CAR- and PXR-regulated genes in human primary hepatocytes; assay: Quantitative real-time PCR in human primary hepatocytes; format: cell-based; conditions: three donors, 1 μM CITCO or 5 μM PK11195, 48 h
# Description: as §1
# Briefly, human primary hepatocytes (donor 5) were maintained in William's E Media with supplements for 4 days prior to treatment. […] RNA extracted was used for cDNA synthesis and measured by quantitative real-time PCR with Taqman probes. CYP2B6 and CYP3A4 mRNA were normalized to the internal control 18S and DMSO-treated samples were set to 1.
# as §2
# [3] = tested on: CAR binding to CYP2B6 and CYP3A4 promoter response elements; assay: Chromatin immunoprecipitation (CAR / RNA polymerase II occupancy at promoters); format: cell-based, human; conditions: human primary hepatocytes, 3 donors, overnight, 1 μM CITCO or 5 μM CINPA1
# Procedure: FIG. 8B and FIG. 8C show the fold enrichment of CAR at CYP2B6-dNR3 and CYP2B6-PBREM sites, respectively, in the promoter region following the indicated treatment in human primary hepatocytes. […] Protein complexes were cross-linked and chromatin was immunoprecipitated by using anti-CAR antibody or control IgG. CAR occupancy at two separate CYP2B6 promoter regions (dNR3 and PBREM) was determined by performing quantitative RT-PCR assays. Fold-enrichment normalized to IgG control was plotted. Data represent the mean±SD of 3 experiments. *, p<0.01 comparing CITCO treatment to DMSO treatment.
# FIG. 9A, FIG. 9B, and FIG. 9C show the fold enrichment of CAR at CYP2B6-dNR3, CYP3A4-XREM, and CYP2B6-dNR3 sites, respectively, in the promoter region following the indicated treatment in human primary hepatocytes or HepG2-hCAR1 cells, as indicated in the figures. Briefly, in FIG. 9A and FIG. […] 9C HepG2-hCAR1 stable cells were treated for […] with DMSO, 1 μM CITCO, 5 μM CINPA1, or 1 μM CITCO+5 μM CINPA1. Protein complexes were cross-linked and chromatin was immunoprecipitated by using anti-CAR antibody, anti-RNA polymerase II (RPol) antibody, or control IgG. CAR or RPol occupancy at the CYP2B6-dNR3 region and CYP3A4-XREM region was determined by performing quantitative RT-PCR assays. Fold-enrichment was normalized to IgG control. Data represent the mean±SD of 3 experiments. *, p<0.001 and #, p<0.01 comparing CITCO to DMSO samples. **, p<0.001 and ##, p<0.01 comparing CITCO+CINPA1 to CITCO samples.
# ChIP was performed as described previously (Cherian, M. T., et al. (2012) J. Biol. Chem. 287, 23368-23380). Briefly, human hepatocytes in 6-well plates were maintained for 3-4 days in Williams E medium containing Primary Hepatocyte Maintenance Supplement (Life Technologies), with daily media changes. Nine wells were used for each treatment group. […] The HepG2-hCAR1 stable cells in FIG. 9 were treated with DMSO, 1 μM CITCO, 5 μM CINPA1, or 1 μM CITCO+5 μM CINPA1 for […]. In FIG. 9, the hepatocytes from donor 7 were treated with DMSO, 0.1 μM CITCO, 1 μM CINPA1, or 0.1 μM CITCO+1 μM CINPA1 for 45 min. Proteins were cross-linked with 1% formaldehyde for 10 min. Cell extracts were digested for 10 min with 50 units of micrococcal nuclease (New England Biolabs) at 37° C. and further sonicated to yield sheared DNA fragments having an average length of 200-1000 base pairs. The sonicated samples were pelleted by centrifugation, and the supernatant was diluted 3- to 5-fold with ChIP dilution buffer (0.01% SDS, 1.1% Triton X-100, 1.2 mM EDTA, 16.7 mM Tris-HCl, pH 8.1, 167 mM NaCl, and protease inhibitor cocktail). […] Quantitative RT-PCR assays were performed to determine the change in CAR occupancy at various sites of CAR binding. […]
# [4] = 70 μM compound, 42 μM clotrimazole = 100%, DMSO = 0%
# [5] = read-out: IC50 (CAR inverse agonistic activity)
Compound,IC50 (hCAR1),% Inhibition (56 μM) (hCAR1),pIC50 (GST-hCAR-LBD; [5]),inhibition at 70 µM (GST-hCAR-LBD; [4]),also measured
"N-(5-(diethylglycyl)-10,11-dihydro-5H-dibenzo[b,f]azepin-3-yl)isobutyramide [Compound 3]",104.4 µM,0.03612%,6.17,,% Inhibition (70 μM) (GST-hCAR-LBD; [4]): 113.8%
"CCC(C)N(C)C(=O)c1cc2ccccc2c(-c2ccccc2Cl)n1 (centres unmarked) [PK11195, reference compound]",,,,,"CYP2B6 mRNA level [1]: reduced the levels of CYP2B6; CYP3A4 mRNA level [1]: increased that of CYP3A4; MDR1 mRNA level [1]: reduced MDR1 levels; CYP2B6 mRNA level, compound alone [2]: increased CYP2B6 transcription"
"CCN(CC)CC(=O)N1c2ccccc2CCc2ccc(NC(=O)N(CC)CC)cc21 [Compound 8, 3-(5-(diethylglycyl)-10,11-dihydro-5H-dibenzo[b,f]azepin-3-yl)-1,1-diethylurea]",109.6 µM,2.849%,4.85,93.8%,
CCNS(=O)(=O)Nc1ccc2c(c1)N(C(=O)CN(CC)CC)c1ccccc1CC2 [Compound 9],105.9 µM,4.757%,4.72,92%,
"CCN(CC)CC(=O)N1c2ccccc2CCc2ccc(Nc3nnc(C)o3)cc21 [Compound 10, 2-(diethylamino)-1-(3-((5-methyl-1,3,4-oxadiazol-2-yl)amino)-10,11-dihydro-5H-dibenzo[b,f]azepin-5-yl)ethan-1-one]",111.6 µM,6.281%,,93.8%,"pIC50 (GST-hCAR-LBD; Table 4, read-out: IC50): 4.73; fold increase of IC50 (decrease of activity) relative to lead chemical 1 (CINPA1) (GST-hCAR-LBD; relative to chemical 1): about 3.4 fold"
"CCN(CC)CC(=O)N1c2ccccc2CCc2ccc(NC(=O)NC(C)(C)C)cc21 [Compound 7, 1-(tert-butyl)-3-(5-(diethylglycyl)-10,11-dihydro-5H-dibenzo[b,f]azepin-3-yl)urea]",,,4.89,101%,
"CCOC(=O)Nc1ccc2c(c1)N(C(=O)Cn1cccc1)c1ccccc1CC2 [Compound 16, ethyl (5-(2-(1H-pyrrol-1-yl)acetyl)-10,11-dihydro-5H-dibenzo[b,f]azepin-3-yl)carbamate]",,,7.43,121%,fold increase of CAR inverse agonistic activity (potency) over lead chemical 1 (CINPA1) (GST-hCAR-LBD; relative to chemical 1): 19 fold; fold more potent than chemical 13 (GST-hCAR-LBD; relative to chemical 13): 43 fold
"Clc1ccc(-c2nc3sccn3c2/C=N/OCc2ccc(Cl)c(Cl)c2)cc1 [CITCO, 6-(4-chlorophenyl)imidazo [2,1-b][1,3]thiazole-5-carbaldehyde O-(3,4-dichlorobenzyl) oxime, reference compound]",,,,,"CAR recruitment to XREM (dNR3) of the CYP2B6 gene [3]: enhances recruitment of CAR; CYP2B6 mRNA level, compound alone [2]: induced CYP2B6 levels"
